The source of these data is patent US20120301551A1, “COMPOUNDS AND COMPOSITIONS FOR TREATING NEURONAL DEATH OR NEUROLOGICAL DYSFUNCTION” (Neurotech Pharmaceuticals Co., Ltd., priority 2005, published 2012).

“Also recorded” adds a separate entry of the source.

The test system of data set [1] is mixed cortical cell cultures containing neurons and glia. The data set is described as follows: Fe2+-induced free radical neurotoxicity in mixed cortical cell cultures (LDH release). The data set is classed as cell-based, mouse. Conditions: for Fe^2+-induced free radical neurotoxicity, effect in words: 50 μM Fe^2+, 24 hr, 2-Hydroxy-TTBA or 2-Hydroxy-TPEA at doses as low as 0.3 μM, vitamin E at higher doses, Li^+ 10 mM (legend 5 mM); for Fe^2+-induced neuronal death (oxidative stress), effect in words: FIG. 5A: 30 μM Fe^2+, 24 h, 1 μM 2-hydroxy TTBA (submicromolar), 5 mM Li^+; for IC50: Mus musculus, Neuron, 50 μM FeCl2, neuronal death 24 hr later (LDH), read-out: IC50 (50% protection against Fe^2+-induced free radical neurotoxicity). The procedure: (§1) Mouse cortical cell cultures (DIV 11-15) were exposed to 50 μM Fe^2+ or 10 mM BSO, alone or with inclusion of 5 mM Li^+. Neuronal death was analyzed 24 hr later by measuring levels of LDH released into the bathing medium, mean±SEM (n=9-12 culture wells per condition).
Mouse cortical cell cultures (DIV 11-15) were exposed to 30 μM Fe^2+ or 10 mM BSO, alone or in the presence of 1 μM 2-hydroxy TTBA, 10-100 μM vitamin E, or 5 mM Li^+.
For mixed neuron-glia culture, mouse cerebral cortices were removed from brains of the 11-15 day-old-fetal mice (E11-15), gently triturated and plated on 24 well plates (2×10^5 cells/plate) precoated with 100 μg/ml poly-D-lysine and 4 pg/ml laminin. Cultures were maintained at 37° C. in a humidified 5% CO2 atmosphere.
After 7-8 days in vitro (DIV 7-8), 10 μM cytosine arabinofuranoside (Ara-C) was included to halt overgrowth of glia. The drug treatment was carried on DIV 11-15 cortical cell culture.
Oxidative stress was induced by exposing mixed cortical cell cultures containing neurons and glia (DIV 11-15) to 50 μM FeCl2, a hydroxyl radical-producing transition metal via a Fenton reaction, or 10 mM DL-buthionine-[S,R]-sulfoximine (BSO), a glutathione depleting agent.

Data set [2] deals with cortical cell cultures containing neurons and glia. In words: cyclosporine A or calyculin A-induced neuronal cell apoptosis in cortical cell cultures. It counts as cell-based, mouse. Conditions: 20 μM cyclosporine A, 24 hr; 100 μM Vitamin E, 1 μM 2-hydroxy-TTBA, 1 μM 2-hydroxy-TPEA. On the procedure:
Mouse cortical cell cultures (DIV 10-12) were exposed to 20 μM cyclosporine A or 10 nM calculin A, alone or with inclusion of 0.3-30 mM Li. Neuronal death was analyzed 24-28 hr later by measuring levels of LDH released into the bathing medium, mean±SEM (n=9-12 culture wells per condition).
Mouse cortical cell cultures (DIV 10-12) were exposed to 20 μM cyclosporine A, alone or with 100 μM Vitamin E, 1 μM 2-hydroxy-TTBA, or 1 μM 2-hydroxy-TPEA. Neuronal death was analyzed 24 hr later by measuring levels of LDH released into the bathing medium, mean±SEM (n=9-12 culture wells per condition).
Cortical cell cultures containing neurons and glia at 10-12 days in vitro (DIV 10-12) were exposed to 20 μM cyclosporine A (CsA) or 10 nM caliculin A (cal A). Neurons underwent widespread apoptosis 24 hr later as previously reported (McDonald et al., 1996; Ko et al., 2000). […] This implies that Li^+ and the neuroprotective drugs (vitamin E, trolox, BAS, CBAS, FBAS, TBAS, PBAS, MBAS, NPAA, NPPAA, 2-Hydroxy-TTBA, and 2-Hydroxy-TPEA) selectively prevent neuronal cell apoptosis and free radical-mediated necrosis, respectively.

Data set [3] deals with mixed cortical cell cultures containing neurons and glia. In words: BSO-induced free radical neurotoxicity in mixed cortical cell cultures (LDH release). To be noted: for BSO-induced free radical neurotoxicity, effect in words: 10 mM BSO, 24 hr, 2-Hydroxy-TTBA or 2-Hydroxy-TPEA at doses as low as 0.3 μM, Li^+ 10 mM (legend 5 mM); for BSO-induced neuronal death (oxidative stress), effect in words: FIG. 5A: 10 mM BSO, 24 h, 1 μM 2-hydroxy TTBA (submicromolar), 5 mM Li^+. The data set is classed as cell-based, mouse. The procedure: Mouse cortical cell cultures (DIV 11-15) were exposed to 10 mM BSO, alone or with indicated doses of 2-Hydroxy-TTBA or 2-Hydroxy-TPEA. Neuronal death was analyzed 24 hr later by measuring levels of LDH released into the bathing medium, mean±SEM (n=9-12 culture wells per condition). *, Significant difference from BSO alone, p<0.05 using ANOVA and Student-Newman-Keuls test.
as §1
Mouse cortical cell cultures (DIV 11-15) were exposed to 30 μM Fe^2+ or 10 mM BSO, alone or in the presence of 1 μM 2-hydroxy TTBA, 10-100 μM vitamin E, or 5 mM Li^+. Neuronal death was analyzed 24 h later by measuring LDH efflux in the bathing media (mean±SEM, n=12). *, Significant difference from the relevant control (Fe^2+ or BSO alone), p<0.05 using ANOVA and Student-Newman-Keuls test.
For mixed neuron-glia culture, mouse cerebral cortices were removed from brains of the 11-15 day-old-fetal mice (E11-15), gently triturated and plated on 24 well plates (2×10^5 cells/plate) precoated with 100 μg/ml poly-D-lysine and 4 pg/ml laminin. Cultures were maintained at 37° C. in a humidified 5% CO2 atmosphere. Plating media consist of Eagles minimal essential media (MEM, Earles salts, supplied glutamine-free) supplemented with 5% horse serum, 5% fetal bovine serum, 26.5 mM bicarbonate, 2 mM glutamine, and 21 mM glucose.
After 7-8 days in vitro (DIV 7-8), 10 μM cytosine arabinofuranoside (Ara-C) was included to halt overgrowth of glia. The drug treatment was carried on DIV 11-15 cortical cell culture. Overall neuronal cell injury was assessed by measuring amount of lactate dehydrogenase (LDH) released into the bathing medium 24 hr after neurotoxic insults as previously described (Koh and Choi, J Neurosci Methods 20:83-90, 1987).
Oxidative stress was induced by exposing mixed cortical cell cultures containing neurons and glia (DIV 11-15) to 50 μM FeCl2, a hydroxyl radical-producing transition metal via a Fenton reaction, or 10 mM DL-buthionine-[S,R]-sulfoximine (BSO), a glutathione depleting agent. Widespread neuronal death was observed 24 hours later. […] Administration of vitamin E prevented Fe^2+-induced free radical neurotoxicity at higher doses. This implies that 2-Hydroxy-TTBA or 2-Hydroxy-TPEA is a potent neuroprotectant against oxidative stress.

Another data set has as its system Tg2576 transgenic mice. The data set is described as follows: amyloid plaque burden in Tg2576 transgenic mice (Thioflavin-S). It counts as in vivo, mouse. The procedure: […] 18˜20 um brain cryo-sections were stained with 1% Thioflavin-S for 5 minutes and observed under fluorescence microscope system. Amyloid plaque burden/brain was quantified with MetaVue Image software (mean±SEM, n=2).
[…] 18˜20 μm brain sections stained 1% Thioflavin-S for 5 min and observed under fluorescence microscope system.

The subject of another data set is gastric mucous membrane. In words: gastric mucous membrane damage after oral administration. It counts as in vivo. Conditions: 1,000 mg/kg orally administered. On the procedure:
FIG. 10 is results showing degrees of the gastric mucous membrane damage. Test samples were orally administered in a different dose. […] Aspirin was used as control.
Conventional NSAIDs have side effects causing damages to the gastric mucous membrane. Therefore, it was evaluated whether chemical 01 having anti-inflammatory effect causes the gastric damage or not. 30, 100 or 300 mg/kg of aspirin was orally administered as control.

Take `O=C(O)c1cc(NCc2c(F)c(F)c(C(F)(F)F)c(F)c2F)ccc1O` [2-Hydroxy-TTBA, 2-hydroxy-5-(2,3,5,6-tetrafluoro-4-trifluoromethyl-benzylamino)-benzoic acid]: the “Fe^2+-induced free radical neurotoxicity, effect in words” value in data set [1] was “nearly completely blocked”. Further, the figures for the “Fe^2+-induced neuronal death (oxidative stress), effect in words” value in data set [1] (listed as 2-hydroxy TTBA) and in data set [1] (listed as 2-hydroxy-TTBA) were “prevents oxidative stress” and “completely blocked”, respectively. In addition, the IC50 in data set [1] turned out to be 0.11 µM. The “neuroprotective effect against Fe^2+-induced oxidative neuronal death relative to vitamin E” value in data set [1] (higher than vitamin E) came out at 220 times. Besides, the “cyclosporine A-induced neuronal cell apoptosis, effect in words” value in data set [2] was “not attenuated; also recorded: do not attenuate”. For the same compound, the “BSO-induced free radical neurotoxicity, effect in words” value in data set [3] was “nearly completely blocked”. The entries for the “BSO-induced neuronal death (oxidative stress), effect in words” value in data set [3] (listed as 2-hydroxy TTBA) and in data set [3] (listed as 2-hydroxy-TTBA) were “prevents oxidative stress” and “completely blocked”, respectively.
Turning to `O=C(O)c1cc(NCCc2ccc(C(F)(F)F)cc2)ccc1O` [chemical 01, 2-Hydroxy-5-[2-(4-trifluoromethyl-phenyl)-ethylamino]-benzoic acid], in the data set with Tg2576 transgenic mice (25 mg/kg/d for 8 months (9~17 month)), the “amyloid plaque burden, in words” value is given as “reduced significantly”. Moreover, the “reduction of amyloid plaque burden compared to control” value in the data set with Tg2576 transgenic mice (25 mg/kg/day in chow for 8 months (9~17 months)) was 39.2%. Moreover, the “reduction in plaque burden” value in the data set on Tg2576 transgenic mice (100 mg/kg/day for 6 months (from 6 to 12 months)) is 62%. In addition, the figures for the “gastric side effect (damage of the gastric mucous membrane)” value in the data set on gastric mucous membrane and in the data set on gastric mucous membrane (listed as Chemical 01) were “did not cause damage of the gastric mucous membrane” and “did not cause the gastric side effect”, respectively. The “Fe^2+-induced free radical neurotoxicity, effect in words” value in data set [1] is on record as “nearly completely blocked”. Moreover, the IC50 in data set [1] was found to be 0.099 µM. For the same compound, the “cyclosporine A-induced neuronal cell apoptosis, effect in words” value in data set [2] was “not attenuated; also recorded: do not attenuate”. Further, the “BSO-induced free radical neurotoxicity, effect in words” value in data set [3] is “nearly completely blocked”.
